Assay results taken from patent US9925162B2, “Methods and compositions for inducing physiological hypertrophy” (THE REGENTS OF THE UNIVERSITY OF COLORADO, priority 2009, dated 2018).

What was measured:
[1] = system: Aquaporin 7; assay: Aqp7 mRNA by qPCR after fatty acid treatment; type: cell-based, rat; conditions: fasted plasma supplemented with FFAs, relative to 1 DPF plasma, FIG. 11
Protocol: (§1) Individual fatty acids were complexed to BSA as described by de Vries et al. (J. Lipid Res.; 38:1384-1394; 1997), which is hereby incorporated by reference. […] An equal volume of Na2CO3 (10 mM) was added and the ethanol was evaporated at 60° C. under continuous N2 flow. The fatty acid mix was added dropwise to 10% BSA. BSA/fatty acid complexes were then dialyzed four times at 4° C. during 4-6 hours in NH4HCO3 (0.1 M). Complexes were then frozen, lyophilized overnight, and resuspended in NRVM rinse media (MEM/PB12/Hepes) for a final concentration of 7 mM. NRVMs were treated with fasted serum, 1 day post-fed serum, or fasted serum+individual fatty acids. […] NRVM gene expression and mean cell diameter were determined after either 24 or 48 hours, respectively.

[2] = system: neonatal rat cardiomyocytes; assay: Fasted plasma supplemented with fatty acids, NRVM cell size; type: cell-based; conditions: fasted plasma 2% supplemented to 1 DPF-like levels (C14 40 μM; C16 137 μM; C16:1 7.5 μM), 48 hours, FIG. 10
Protocol: as §1

[3] = system: Neonatal rat ventricular myocytes (NRVMs); assay: Inhibition of fatty acid transport blocks serum-induced NRVM hypertrophy; type: cell-based; conditions: Coulter Counter
Protocol: Synthesis of Sulfo-N-succinimidyl oleate (SSO) was performed as described by Harmon et al. (J. Membr Biol.; 121:261-268; 1991), which is hereby incorporated by reference. Briefly, oleate (0.25 mM), HOSu(SO3)Na (0.25 mM), and dicyclohexylcarbodiimide (DCC) (0.275 mM) were dissolved in 0.5 ml of dry N,N-dimethylformamide (DMF) and stirred overnight at room temperature. Precipitated dicyclohexyturea was removed by filtration, and the filtrate cooled to 3° C. for 4 hours. Eight volumes of ethyl acetate were added, and the precipitated product was collected by filtration under nitrogen and then stored in a vacuumed desiccator over phosphorus pentoxide. Neonatal rat ventricular myocytes (NRVMs) were cultured in serum-free media (MEM/Hepes/PB12) containing insulin, transferrin, BSA, and BrdU. NRVMs were treated with serum (2%) in the presence and absence of SSO (400 μM) for 48 hours and cell size was determined using a Coulter Counter.

CCCCCCCCCCCCCC(=O)O [C14, tetradecanoic acid]
Aqp7 mRNA levels [1]: comparable levels observed with 1 DPF plasma
changes in cell size [2]: significant increase

CCCCCCCC/C=C\CCCCCCCC(=O)ON1C(=O)CC(S(=O)(=O)O)C1=O (stereo not shown) [SSO, Sulfo-N-succinimidyl oleate]
cell growth induced by the fed-serum ([3]; SSO 400 μM, 2% 1DPF serum, 48 hours): completely blocks
cell size ([3]; SSO and no serum (control)): smaller
